Measured values: patent US12534452B2, “N-(1H-imidazol-2-yl)benzamide compound and pharmaceutical composition comprising the same as active ingredient” (KAINOS MEDICINE, INC., priority 2019, dated 2026)

Each compound was assayed against IRAK4 (Homo sapiens (Human), UniProt Q9NWZ3) (assay: In vitro IRAK4 phosphorylation activity assay). Details: [γ-33P]-ATP, myelin basic protein substrate, 40 minutes at room temperature; categories.
Type: biochemical
How it was run: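 Radiometric filter-binding assay, no compound–kinase preincubation; 8 mM MOPS pH 7.0, 0.2 mM EDTA, 10 mM Mg acetate, 0.33 mg/mL myelin basic protein substrate, [γ-33P]-ATP. Reaction 40 min at room temperature, stopped with phosphoric acid, scintillation counting; IC50 reported in categories.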

Chain of IRAK4 (Q9NWZ3 whole entry): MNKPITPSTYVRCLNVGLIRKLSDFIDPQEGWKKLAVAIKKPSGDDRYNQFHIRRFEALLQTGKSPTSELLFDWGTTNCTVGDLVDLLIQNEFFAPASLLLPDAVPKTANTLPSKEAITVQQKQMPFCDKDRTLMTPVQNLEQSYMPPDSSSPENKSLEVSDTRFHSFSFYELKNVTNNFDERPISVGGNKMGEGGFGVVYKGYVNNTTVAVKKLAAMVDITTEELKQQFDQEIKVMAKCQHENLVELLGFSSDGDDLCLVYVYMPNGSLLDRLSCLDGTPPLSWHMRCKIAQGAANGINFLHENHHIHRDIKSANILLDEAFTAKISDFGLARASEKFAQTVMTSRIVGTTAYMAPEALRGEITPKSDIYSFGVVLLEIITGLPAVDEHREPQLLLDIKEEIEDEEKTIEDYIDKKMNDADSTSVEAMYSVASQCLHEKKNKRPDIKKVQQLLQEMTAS

| IC50 [nM] | Compound |
| --- | --- |
| < 50 | CN1CCN(C(=O)CCCCCc2cn(-c3ccccc3)c(NC(=O)c3cccc(-c4ccc5[nH]ncc5c4)c3)n2)CC1 [Example 239, 3-(1H-indazol-5-yl)-N-(4-(6-(4-methylpiperazin-1-yl)-6-oxohexyl)-1-phenyl-1H-imidazol-2-yl)benzamide] |
| 50 to 100 | CNC(=O)CCCc1cn(-c2ccc(F)cc2F)c(NC(=O)c2cccc(-c3cn[nH]c3)c2)n1 [Example 298, N-(1-(2,4-difluorophenyl)-4-(4-(methylamino)-4-oxobutyl)-1H-imidazol-2-yl)-3-(1H-pyrazol-4-yl)benzamide] |
| < 50 | O=C(CCCc1cn(-c2ccccc2)c(NC(=O)c2cccc(-c3cn[nH]c3)c2)n1)Nc1ccc(F)cc1 [Example 64, N-(4-(4-((4-fluorophenyl)amino)-4-oxobutyl)-1-phenyl-1H-imidazol-2-yl)-3-(1H-pyrazol-4-yl)benzamide] |
| < 50 | O=C(O)CCCCc1cn(-c2ccccc2)c(NC(=O)c2cccc(-c3cn[nH]c3)c2)n1 [Example 78, 5-(2-(3-(1H-pyrazol-4-yl)benzamido)-1-phenyl-1H-imidazol-4-yl)pentanoic acid] |
| < 50 | O=C(CCCc1cn(-c2ccccc2)c(NC(=O)c2cccc(-c3cnn(CF)c3)c2)n1)NC1CC1 [Example 234, N-(4-(4-(cyclopropylamino)-4-oxobutyl)-1-phenyl-1H-imidazol-2-yl)-3-(1-(fluoromethyl)-1H-pyrazol-4-yl)benzamide] |
| < 50 | O=C(CCc1cn(-c2ccccc2)c(NC(=O)c2cccc(-c3cn[nH]c3)c2)n1)Nc1ccccc1 [Example 6, N-(4-(3-oxo-3-(phenylamino)propyl)-1-phenyl-1H-imidazol-2-yl)-3-(1H-pyrazol-4-yl)benzamide] |
| < 50 | O=C(Nc1nc(CCCCCCNC(=O)C2CC2)cn1-c1ccccc1)c1cccc(-c2ccc3[nH]ncc3c2)c1 [Example 262, N-(4-(6-(cyclopropanecarboxamido)hexyl)-1-phenyl-1H-imidazol-2-yl)-3-(1H-indazol-5-yl)benzamide] |
| < 50 | COC[C@@H]1CCCN1C(=O)CCCCCc1cn(-c2ccccc2)c(NC(=O)c2cccc(-c3cn[nH]c3)c2)n1 [Example 100, (S)—N-(4-(6-(2-(methoxymethyl)pyrrolidin-1-yl)-6-oxohexyl)-1-phenyl-1H-imidazol-2-yl)-3-(1H-pyrazol-4-yl)benzamide] |
| < 50 | O=C(Nc1nc(CCCN2CCOCC2)cn1-c1ccccc1)c1cccc(-c2cn[nH]c2)c1 [Example 107, N-(4-(3-morpholinopropyl)-1-phenyl-1H-imidazol-2-yl)-3-(1H-pyrazol-4-yl)benzamide] |
| < 50 | Cn1cc(-c2cccc(C(=O)Nc3nc(CCCC(=O)N4CCC(C#N)CC4)cn3-c3ccccc3)c2)cn1 [Example 168, N-(4-(4-(4-cyanopiperidin-1-yl)-4-oxobutyl)-1-phenyl-1H-imidazol-2-yl)-3-(1-methyl-TH-pyrazol-4-yl)benzamide] |
| < 50 | CN1CCN(C(=O)CCc2cn(-c3ccccc3)c(NC(=O)c3cccc(-c4cnn(C)c4)c3)n2)CC1 [Example 194, 3-(1-methyl-1H-pyrazol-4-yl)-N-(4-(3-(4-methylpiperazin-1-yl)-3-oxopropyl)-1-phenyl-1H-imidazol-2-yl)benzamide] |
| < 50 | O=C(Nc1nc(CCCCCCN2CCCCC2)cn1-c1ccc(F)cc1)c1cccc(-c2cn[nH]c2)c1 [Example 301, N-(1-(4-fluorophenyl)-4-(6-(piperidin-1-yl)hexyl)-1H-imidazol-2-yl)-3-(1H-pyrazol-4-yl)benzamide] |
| < 50 | Nc1ccc(-c2cccc(C(=O)Nc3nc(CCCCCCN4CCCCC4)cn3-c3ccccc3)c2)cn1 [Example 275, 3-(6-aminopyridin-3-yl)-N-(1-phenyl-4-(6-(piperidin-1-yl)hexyl)-1H-imidazol-2-yl)benzamide] |
| < 50 | Cn1cc(-c2cccc(C(=O)Nc3nc(CCCCCCN4CCCCC4)cn3-c3ccccc3)c2)cn1 [Example 220, 3-(1-methyl-1H-pyrazol-4-yl)-N-(1-phenyl-4-(6-(piperidin-1-yl)hexyl)-1H-imidazol-2-yl)benzamide] |
| < 50 | O=C(CCc1cn(-c2ccccc2)c(NC(=O)c2cccc(-c3cn[nH]c3)c2)n1)Nc1ccc(F)cc1F [Example 16, N-(4-(3-((2,4-difluorophenyl)amino)-3-oxopropyl)-1-phenyl-1H-imidazol-2-yl)-3-(1H-pyrazol-4-yl)benzamide] |
| < 50 | C[C@@H]1CCC[C@H](C)N1C(=O)CCCCCc1cn(-c2ccccc2)c(NC(=O)c2cccc(-c3cn[nH]c3)c2)n1 [Example 97, N-(4-(6-((2R,6S)-2,6-dimethylpiperidin-1-yl)-6-oxohexyl)-1-phenyl-1H-imidazol-2-yl)-3-(1H-pyrazol-4-yl)benzamide] |
| 50 to 100 | Cn1cc(-c2cccc(C(=O)Nc3nc(CCCC(=O)NN4CCCCC4)cn3-c3ccccc3)c2)cn1 [Example 152, 3-(1-methyl-1H-pyrazol-4-yl)-N-(4-(4-oxo-4-(piperidin-1-ylamino)butyl)-1-phenyl-1H-imidazol-2-yl)benzamide] |
| < 50 | CN1CCN(C(=O)CCCc2cn(-c3ccccc3)c(NC(=O)c3cccc(-c4ccc5[nH]ncc5c4)c3)n2)CC1 [Example 247, 3-(1H-indazol-5-yl)-N-(4-(4-(4-methylpiperazin-1-yl)-4-oxobutyl)-1-phenyl-1H-imidazol-2-yl)benzamide] |
| < 50 | CNC(=O)CCCc1cn(-c2ccccc2)c(NC(=O)c2cccc(-c3cn[nH]c3)c2)n1 [Example 60, N-(4-(4-(methylamino)-4-oxobutyl)-1-phenyl-1H-imidazol-2-yl)-3-(1H-pyrazol-4-yl)benzamide] |
| < 50 | O=C(Nc1nc(CCCCCN2CCCCC2)cn1-c1ccccc1)c1cccc(-c2cn[nH]c2)c1 [Example 118, N-(1-phenyl-4-(5-(piperidin-1-yl)pentyl)-1H-imidazol-2-yl)-3-(1H-pyrazol-4-yl)benzamide] |
| 50 to 100 | CN(C)CCCNC(=O)CCCc1cn(-c2ccccc2)c(NC(=O)c2cccc(-c3cnn(C)c3)c2)n1 [Example 163, N-(4-(4-((3-(dimethylamino)propyl)amino)-4-oxobutyl)-1-phenyl-1H-imidazol-2-yl)-3-(1-methyl-1H-pyrazol-4-yl)benzamide] |
| > 100 | O=C(CCCCCc1cn(-c2ccccc2)c(NC(=O)c2cccc(-c3ccc4scnc4c3)c2)n1)NC1CC1 [Example 290, 3-(benzo[d]thiazol-5-yl)-N-(4-(6-(cyclopropylamino)-6-oxohexyl)-1-phenyl-1H-imidazol-2-yl)benzamide] |
| > 100 | O=C(CCc1cn(-c2ccccc2)c(NC(=O)c2cccc(-c3cn[nH]c3)c2)n1)Nc1ccccn1 [Example 15, N-(4-(3-oxo-3-(pyridin-2-ylamino)propyl)-1-phenyl-1H-imidazol-2-yl)-3-(1H-pyrazol-4-yl)benzamide] |
